Converted amounts (≈) assume the structure as drawn. Like-named read-outs stand apart in the source and are kept apart here.
What was measured:
[1] = Kinetic solubility estimation using nephelometry (Monash); assay type: physicochemical; details: for solubility kinetic at 30 min: kinetic from dmso stock
Description: Compound in DMSO was spiked into either pH 6.5 phosphate buffer or 0.01 M HCl (approximately pH 2.0) with the final DMSO concentration being 1%. […]
b) Kinetic Solubility Estimation using Nephelometry (SolpH)
Compound in DMSO was spiked into either pH 6.5 phosphate buffer or 0.01 M HCl (approx pH 2.0) with the final
DMSO concentration being 1%. After 30 minutes had elapsed, samples were then analysed via Nephelometry to
determine a solubility range. See Bevan and Lloyd (2000) Anal Chem, 72:1781-1787. […]
(§1) In Vitro Intrinsic Clearance […]
(§2) Experimental results are tabulated on the following page(s).
(§3) (1 picture or pasted object on this page, not shown here)

[2] = Distribution coefficient estimation using chromatography, gLogD (Monash); assay type: physicochemical; details: for chromatographic logD: gradient HPLC retention against standard compounds, pH 7.4
Description: Partition coefficient values (LogD) of the test compounds were estimated at pH 7.4 by the correlation of their chromatographic retention properties against the characteristics of a series of standard compounds with known partition coefficient values. The method employed is a gradient HPLC-based derivation of the method developed by Lombardo.[42] […]
c) Distribution Coefficient Estimation using Chromatography (gLogDpH)
Partition coefficient values (LogD) of the test compounds were estimated at pH 7.4 by correlation of their
chromatographic retention properties against the characteristics of a series of standard compounds with known
partition coefficient values. […]
as §1, §2, §3

[3] = In vitro metabolic stability, human liver microsomes (Monash); assay type: in vitro ADME; details: for microsomal CLint at 1 µM / half-life at 1 µM: Monash; for microsomal CLint at 1 µM: read-out: HLM Clint (Monash); for half-life at 1 µM: read-out: HLM t1/2 (Monash)
Description: (§4) The metabolic stability assay was performed by incubating each test compound with a suspension of liver microsomes (0.4 mg/mL protein, 1 μM substrate, 37 °C). Microsomes were purchased from XenoTech. The metabolic reaction was initiated by the addition of an NADPH-regenerating system and quenched at various time points over a 60 min incubation by the addition of acetonitrile containing metolazone as an internal standard. Control samples (containing no NADPH) were included (quenched at 2, 30, and 60 min) to monitor for potential degradation in the absence of cofactor. […]
(§5) d) In Vitro Metabolic Stability
(§6) The metabolic stability assay was performed by incubating each test compound with a suspension of liver
(§7) microsomes (0.4 mg/mL, 37°C). The metabolic reaction was initiated by the addition of an NADPH-regenerating
(§8) system and quenched at various time points over a 60 minute incubation by the addition of acetonitrile containing
(§9) metolazone as internal standard. Control samples (containing no NADPH) were included (quenched at 2, 30 and 60
(§10) minutes) to monitor for potential degradation in the absence of cofactor.
(§11) The human liver microsomes used in this experiment were supplied by XenoTech, lot # 1710084.The rat liver
(§12) microsomes used in this experiment were supplied by XenoTech, lot # 1610290. Microsomal incubations were
(§13) performed at a substrate concentration of 1 µM.
(§14) Data analysis and interpretation:
(§15) Substrate depletion as a function of time was analysed as described by Obach (1999) Drug Metab. Dispos., 27:1350-
(§16) 1359. Intrinsic clearance (CLint) values were classified at the limits of low and high clearance bands based on a
(§17) rearrangement of the well stirred model of hepatic elimination. It should be noted that the potential impact of
(§18) compound binding (either in microsomes or in blood) on the relationship between in vitro intrinsic clearance and
(§19) hepatic clearance in vivo has not been accounted for in these studies.
(§20) In Vitro Intrinsic Clearance
(§21) Species (µL/min/mg protein)
(§22) Low Clearance High Clearance
as §2, §3

[4] = In vitro metabolic stability, rat liver microsomes (Monash); assay type: in vitro ADME; details: for microsomal CLint at 1 µM / half-life at 1 µM: Monash; for microsomal CLint at 1 µM: read-out: RLM Clint (Monash); for half-life at 1 µM: read-out: RLM t1/2 (Monash)
Description: as §4, §5, §6, §7, §8, §9, §10, §11, §12, §13, §14, §15, §16, §17, §18, §19, §20, §21, §22, §2, §3

[5] = tested on: Staphylococcus aureus ATCC 43300 MRSA; assay: CO-ADD antibacterial assay (growth inhibition, MIC), MRSA; assay type: cell-based; details: read-out: MRSA MIC (CO-ADD)
Description: Hit Confirmation of active compounds by whole cell growth inhibition assays was conducted as an 8-point dose response to determine the Minimum Inhibitory Concentration (MIC), in duplicate (n=2). The inhibition of growth is measured against those microorganisms that […]
Included in the Hit Confirmation were 5 bacteria: Escherichia coli, Klebsiella pneumoniae, Acinetobacter baumannii, Pseudomonas aeruginosa and Staphylococcus aureus, and 2 fungi Candida albicans and Cryptococcus neoformans. […]
Assay Parameters Bacteria Fungi HEK293 Haemolysis […]
Duplicate (n=2) Duplicate (n=2) Duplicate (n=2) Duplicate (n=2)
QC Control MIC: Control MIC: Control CC50: Control HC10:
Non-Binding Non-Binding TC, 384-well Polypropylene
Plates Surface (NBS), Surface (NBS), black wall/clear 384-well and 384-well plate 384-well plate bottom polystyrene 384-
Cation-adjusted Yeast Nitrogen DMEM
Media Mueller Hinton Base supplemented 0.9% NaCl
Hit Confirmation outcomes are detailed in individual Project reports, personalised for each Project Submission for each CO-ADD user.
Please see your data sheet with file extension P0XXX_HC_data.xlsx, for example CO-ADD Project P0100, P0100_HC_data.xlsx
Study: HC_data ID: HC-Procedures & Materials
Date: Last updated June 2018 Confidential Page 3 of 11
as §3
Samples were provided by the collaborator and stored frozen at -20 °C. Samples were prepared in DMSO and water to a final testing concentration of 32 µg/mL or 20 µM (unless otherwise indicated in the data sheet) and serially diluted 1:2 fold for 8 times. Each sample concentration was prepared in 384-well plates, non-binding surface plate (NBS; Corning 3640) for each bacterial/fungal strain, tissue-culture treated (TC-treated; Corning 3712/3764) black for mammalian cell types and polypropylene 384-well (PP; Corning 3657) for haemolysis assays, all in duplicate (n=2), and keeping the final DMSO concentration to a maximum of 0.5%. All the sample preparation was done using liquid handling robots. […]
detailed in the Data sheet for the individual Project.
All bacteria were cultured in Cation-adjusted Mueller Hinton broth (CAMHB) at 37 °C overnight. A sample of each culture was then diluted 40-fold in fresh broth and incubated at 37 °C for 1.5-3 h. The resultant mid-log phase cultures were diluted (CFU/mL measured by OD600), then added to each well of the compound containing plates, giving a cell density of 5×10^5 CFU/mL and a total volume of 50 µL. All the plates were covered and incubated at 37 °C for 18 h without shaking.
Inhibition of bacterial growth was determined measuring absorbance at 600 nm (OD600), using a Tecan M1000 Pro monochromator plate reader. The percentage of growth inhibition was calculated for each well, using the negative control (media only) and positive control (bacteria without inhibitors) on the same plate as references.
The percentage of growth inhibition was calculated for each well, using the negative control (media only) and positive control (bacteria without inhibitors) on the same plate. The MIC […]
by an inhibition ≥ 80%. In addition, the maximal percentage of growth inhibition is reported as DMax, indicating any compounds with partial activity.
Date: Last updated June 2018 Confidential Page 5 of 11
Material Code Brand/Supplier Cat No.
Compound preparation plate, Polypropylene PP Corning 3364
Assay Plates – Antimicrobial
Non-binding surface NBS 384w Corning 3640
Assay Plates – Cytotoxicity
Tissue culture treated Black/Clear bottom 384w Corning 3712
Assay Plates - Haemolysis PP-Haem Corning 3657 […]
Growth media - bacteria CAMHB Bacto Laboratories 212322
Culture agar - fungi YPD Becton Dickinson 242720
Growth media - fungi YNB Becton Dickinson 233520
Resazurin Sigma-Aldrich R7017
Dulbecco's Modified Eagle Medium DMEM Life Technologies 11995-073
Foetal Bovine Serum FBS Bovogen FFBS-500
0.9% NaCl Saline Baxter AHF7124
Sample Name Sample ID MW Conc. Solvent Source […]

[6] = tested on: Staphylococcus aureus NCTC 13373 (mecA-positive; methicillin-resistant); assay: In vitro antibacterial activity, MIC (UCL School of Pharmacy assay), MRSA; assay type: cell-based; details: Staphylococcus aureus, UCL; read-out: MRSA MIC (UCL)
In short: (§23)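 MIC determined over 32–0.03 μg/mL in 2-fold steps, with at most 2% DMSO, in isosensitest broth. Organisms were suspended in PBS to A600 0.1 (about 1 × 10^8 CFU/mL), diluted 1:100 and inoculated; vancomycin served as QC compound.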

[7] = tested on: Enterococcus faecalis ATCC 51299 (vanA-positive; vancomycin-resistant); assay: In vitro antibacterial activity, MIC (UCL), VRE; assay type: cell-based; details: read-out: VRE MIC (UCL)
In short: as §23

Aqueous solubility = assay type: physicochemical; details: thermodynamic from solid; NEU; read-out: Aqueous Solubility (NEU)
[8] = Human plasma protein binding (PPB); assay type: in vitro ADME; details: human plasma, NEU
[9] = Human liver microsome intrinsic clearance; assay type: in vitro ADME; details: human liver microsomes, NEU; read-out: HLM CLint (NEU)
[10] = Rat hepatocyte intrinsic clearance; assay type: in vitro ADME; details: rat hepatocytes, NEU; read-out: Rat Hep CLint (NEU)
[11] = tested on: MRC-5SV2 (human lung fibroblast cell line); assay: Toxicity against MRC-5SV2; assay type: cell-based; details: MRC5 cells
Description: (§24) ADME and toxicity for compounds were measured according to procedures outlined in the manuscript submitted in parallel to this one;2 other procedures were used for those compounds analysed by Monash University (in vitro ADME) or UCL (toxicity), both described in the main

[12] = tested on: PMM (primary mouse macrophages); assay: Toxicity against PMM; assay type: cell-based; details: PMM
Description: as §24

U2OS = assay: Toxicity against U2OS; assay type: cell-based; details: U2OS cells
Description: Supplement id3c00286_si_002.xlsx, sheet "Series 2 Data" | column: U2OS TC50 (uM)

THP1 = assay: Toxicity against THP1; assay type: cell-based; details: THP1 cells
Description: Supplement id3c00286_si_002.xlsx, sheet "Series 2 Data" | column: THP1 TC50 (uM)

[13] = Mouse liver microsome (MLM) metabolic stability (UNC); assay type: in vitro ADME
Description: Supplement id3c00286_si_002.xlsx, sheet "Series 2 Data" | column: MLM Clint (mL/min/kg) (UNC); MLM t1/2 (min) (UNC); MLM E (UNC)

[14] = 0.01 M HCl, simulated gastric fluid, pH 2.0, read-out: Sol (pH 2.0) (Monash)
[15] = pH 6.5 phosphate buffer, pH 6.5, aqueous buffer, read-out: Sol (pH 6.5) (Monash)

For c1ccc(-c2nc3n(c2-c2ccc4c(c2)OCO4)CCS3)nc1 [UNC-ALM-DAI-16], the “Sol 2.0” value ([1]; 0.01 M HCl, approx pH 2.0) was 25 to 50 µg/mL, the “Sol 6.5” value ([1]; pH 6.5 phosphate buffer) was 12.5 to 25 µg/mL and the “gLogD at pH 7.4” value [2] was 1.6. The “CLint, in vitro” value ([3]; NADPH) was 37 µL/min/mg protein, the T1/2 ([3]; NADPH) was 47 min and the “CLint, in vitro” value ([4]; NADPH) was 74 µL/min/mg protein. For the same compound, the T1/2 ([4]; NADPH) was 23 min.
In the case of c1ccc(-c2nc3ccccn3c2-c2ccc3c(c2)OCO3)nc1 [OSA_000814], the MIC [5] was 32 µg/mL (≈ 101 µM), the solubility kinetic at 30 min [1, 14] was > 100 µg/mL and the solubility kinetic at 30 min [1, 15] was 25 to 50 µg/mL (≈ 79.3 to 159 µM). For the same compound, the chromatographic logD [2] was 1.8, the microsomal CLint at 1 µM [3] was 47 µL/min/mg and the half-life at 1 µM [3] was 37 min. The microsomal CLint at 1 µM [4] was 99 µL/min/mg and the half-life at 1 µM [4] was 18 min.
In the case of COc1ccn2c(Nc3ccccc3F)c(-c3cnn(C)c3)nc2c1 [OSA_000855], the MIC [6] was > 32 µg/mL, the MIC [7] was > 32 µg/mL and the solubility (Aqueous solubility) was 22 µM (≈ 7.42 µg/mL). The “Human PPB (NEU)” value [8] was “Low recovery,Unstable in plasma”, the microsomal CLint [9] was < 3 µL/min/mg and the hepatocyte CLint [10] was 82.3 µL/min/1e6 cells. For the same compound, the “MRC5 TC50” value [11] was 64 µM, the “PMM TC50” value [12] was 64 µM and the “U2OS TC50” value (U2OS) was 50 µM. The “THP1 TC50” value (THP1) was 50 µM.
In the case of c1ccc(-c2nc3n(c2-c2ccc4c(c2)OCO4)CCS3)nc1 [OSA_000813], the MIC [5] was 32 µg/mL (≈ 99 µM), the solubility kinetic at 30 min [1, 14] was 25 to 50 µg/mL (≈ 77.3 to 155 µM) and the solubility kinetic at 30 min [1, 15] was 12.5 to 25 µg/mL (≈ 38.7 to 77.3 µM). For the same compound, the chromatographic logD [2] was 1.6, the microsomal CLint at 1 µM [3] was 37 µL/min/mg and the half-life at 1 µM [3] was 47 min. The microsomal CLint at 1 µM [4] was 74 µL/min/mg, the half-life at 1 µM [4] was 23 min and the “MLM E (UNC)” value ([13]; mouse liver microsomes) was 0.873. For the same compound, the CLint scaled ([13]; mouse, liver microsomes) was 619 mL/min/kg and the half-life ([13]; mouse, liver microsomes, read-out: MLM t1/2 (UNC)) was 9.08 min.
